In article PMC10587436, “A bacterial quorum sensing signal is a potent inhibitor of de novo pyrimidine biosynthesis in the globally abundant Emiliania huxleyi” (Frontiers in Microbiology, 2023):

What was measured:
[1] = target: T1, E. huxleyi dihydroorotate dehydrogenase (EhDHODH); assay: DCIP colorimetric DHODH activity assay, Morrison tight-binding fit; IC50 […]; type: biochemical, Emiliania huxleyi
T1 construct: ΔN20EhDHODH (first 20 residues truncated, start at residue 21; N-terminal eight-residue histidine tag)

[2] = target: E. huxleyi dihydroorotate dehydrogenase (EhDHODH)

Row | SMILES | Ki [1] [µM] | IC50 [2] [µM]
1 | CCCCCCCc1cc(=O)c2ccccc2[nH]1 [HHQ] | 0.0023 ± 0.0007 | 
2 | Cc1c(-c2ccc(-c3ccccc3F)cc2)nc2ccc(F)cc2c1C(=O)O [brequinar] |  | 43 ± 11
